From ChEMBL document CHEMBL1201862, “PubChem BioAssay data set” (2004) come the findings set out here.

Some test systems named below: HCC 2998; Malme-3M; Hs-578T; MDA-N; A498; TK-10; SK-MEL-5; PC-3; CAKI-1; SK-MEL-28; OVCAR-8; HCT-116; A549; NCI-H522; SK-MEL-2; SNB-75; HOP-92; RPMI-8226; SF-268; UACC-62.
Holding throughout (assay): inhibition of tumour cell growth, NCI panel, 48 h

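Results reflect a 48-hour exposure of cells in 96-well plates to compound at five concentrations. The concentration for 50% growth inhibition is given as GI50.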 Active and inactive are the calls of the source. No stated cut-off is given here; in the data, active = GI50 up to about 1.1 µM and inactive = higher.

With `BrC1(c2ccccc2)C[n+]2c(-c3ccccc3)cc(-c3ccccc3)cc2-c2ccccc21` (centres undefined), the GI50 in the test with HCC 2998 was 0.111 µM (active); in the test with Malme-3M, 0.441 µM (active); in the test on Hs-578T it was 0.231 µM (active); in the test on MDA-N it was 0.327 µM (active); in the test with A498, 1.81 µM (inactive); in the test on TK-10 it was 1.73 µM (inactive). The GI50 in the test with SK-MEL-5 is 0.197 µM (active); with PC-3, 0.346 µM (active); in the test with CAKI-1, 3.66 µM (inactive); in the test on SK-MEL-28 it was 0.92 µM (active); with OVCAR-8, 0.36 µM (active); in the test with HCT-116, 0.365 µM (active). Besides, the GI50 in the test on A549 is 0.929 µM (active); in the test on NCI-H522, 0.384 µM (active); with SK-MEL-2, 0.317 µM (active); with SNB-75, 0.236 µM (active); in the test with HOP-92, 0.664 µM (active); in the test on RPMI-8226 it was 0.127 µM (active). In the test on SF-268, the GI50 was 0.409 µM (active).
For the compound `CNC(C#N)c1ccc(OC)cc1` (centres undefined), the GI50 in the test on HCC 2998 was > 100 µM (inactive); in the test on Malme-3M, > 100 µM (inactive); in the test with Hs-578T it was > 100 µM (inactive); with MDA-N, 33.1 µM (inactive); in the test with A498 it was > 100 µM (inactive); with TK-10, > 100 µM (inactive). Moreover, the GI50 in the test with SK-MEL-5 was 25.8 µM (inactive); with PC-3, 54 µM (inactive); in the test with CAKI-1, > 100 µM (inactive); in the test on UACC-62, > 100 µM (inactive); with SK-MEL-28 it was > 100 µM (inactive); with OVCAR-8, > 100 µM (inactive). For the same compound, the GI50 with HCT-116 was 57 µM (inactive); with A549 it was > 100 µM (inactive); with NCI-H522, 75.5 µM (inactive); in the test with SK-MEL-2 it was 26.4 µM (inactive); in the test on HOP-92 it was 92.5 µM (inactive); in the test on SF-268, > 100 µM (inactive).
For `NC(=O)C(=CNC(=S)Nc1ccc(S(=O)(=O)Nc2ccccn2)cc1)C(N)=O`, the GI50 in the test with HCC 2998 is > 10 µM (inactive); in the test with Hs-578T, > 100 µM (inactive); in the test with MDA-N it was > 93.8 µM (inactive); in the test with A498, > 100 µM (inactive); with TK-10, > 100 µM (inactive); with SK-MEL-5 it was > 100 µM (inactive). Moreover, the GI50 was > 100 µM (inactive) with PC-3; > 100 µM (inactive) with CAKI-1; > 100 µM (inactive) in the test with UACC-62; > 100 µM (inactive) in the test on SK-MEL-28; > 100 µM (inactive) with OVCAR-8; 46.7 µM (inactive) in the test with HCT-116. Also, the GI50 with A549 is > 100 µM (inactive); in the test with NCI-H522 it was 50.5 µM (inactive); in the test with SK-MEL-2 it was > 100 µM (inactive); in the test on SNB-75, > 100 µM (inactive); in the test with HOP-92 it was > 100 µM (inactive); in the test with RPMI-8226, > 100 µM (inactive). Further, in the test with SF-268, the GI50 was > 100 µM (inactive).
As for `Cc1c(S(=O)(=O)N/C(=N\O)Nc2ccc(Cl)c(Cl)c2)sc2ccc(Cl)cc12`, the GI50 in the test on HCC 2998 is 19.9 µM (inactive); in the test on Malme-3M it was 20.7 µM (inactive); with Hs-578T, 28.6 µM (inactive); in the test with MDA-N, 17.5 µM (inactive); in the test with A498 it was 18.1 µM (inactive); in the test with TK-10 it was 17.7 µM (inactive). The GI50 was 15.1 µM (inactive) in the test on SK-MEL-5; 18.6 µM (inactive) with PC-3; 18.5 µM (inactive) in the test with CAKI-1; 17.7 µM (inactive) in the test with UACC-62; 21.4 µM (inactive) in the test on SK-MEL-28; 21.9 µM (inactive) with OVCAR-8. In addition, the GI50 in the test with HCT-116 is 17.8 µM (inactive); in the test on A549, 24.7 µM (inactive); in the test on NCI-H522, 15.9 µM (inactive); with SK-MEL-2, 18.9 µM (inactive); in the test with HOP-92, 22.2 µM (inactive); in the test on RPMI-8226, 34.7 µM (inactive). Moreover, the GI50 in the test on SF-268 is 24.8 µM (inactive).
For `c1ccc2c(Nc3ncco3)cccc2c1`, the GI50 in the test on HCC 2998, in the test on Malme-3M, in the test with Hs-578T, in the test with MDA-N, in the test with A498 and in the test with TK-10 was > 10 µM (inactive) throughout. Further, the GI50 with SK-MEL-5, in the test with PC-3, in the test with CAKI-1, in the test on UACC-62, with SK-MEL-28 and in the test with OVCAR-8 was > 10 µM (inactive) each time. For the same compound, the GI50 in the test on HCT-116, in the test with A549, in the test with NCI-H522, with SNB-75, in the test with HOP-92 and in the test on SF-268 was > 10 µM (inactive) throughout.
As to `CC1=C[C@@H](C)C[C@]2(C)CC[C@H](O2)[C@]23CC[C@](C)(C[C@H](O2)[C@@H]2O[C@@](C)(CC2=O)[C@@H](O)[C@H]2CC[C@@]4(CCC[C@@H](O4)[C@H](C)C(=O)O[C@H]4C[C@H]([C@]5(O)OCC[C@H](C)[C@@H]5O)O[C@H]4C=C1)O2)O3`, the GI50 was 0.075 µM (active) in the test with HCC 2998; 0.00165 µM (active) in the test with Malme-3M; 0.00115 µM (active) with Hs-578T; 0.0233 µM (active) in the test on MDA-N; 0.00147 µM (active) with A498; 0.00545 µM (active) with TK-10. Moreover, the GI50 in the test with SK-MEL-5 was 0.00148 µM (active); with PC-3 it was 0.00229 µM (active); in the test on CAKI-1 it was < 0.001 µM (active); in the test with UACC-62, 0.00461 µM (active); in the test with SK-MEL-28 it was 0.00173 µM (active); with HCT-116, 0.00826 µM (active). In addition, the GI50 in the test with A549 is 0.0035 µM (active); with NCI-H522, 0.0134 µM (active); in the test with SK-MEL-2, 0.383 µM (active); with SNB-75, < 0.001 µM (active); with HOP-92 it was 0.00159 µM (active); in the test on SF-268, 0.002 µM (active).
Take `O=c1c2cc([N+](=O)[O-])ccc2n2n1CCCC2`: the GI50 with HCC 2998 was > 100 µM (inactive); in the test with Malme-3M it was > 100 µM (inactive); with Hs-578T it was > 100 µM (inactive); in the test with MDA-N it was > 100 µM (inactive); in the test on A498, > 100 µM (inactive); with TK-10, 24.2 µM (inactive). The GI50 with SK-MEL-5, in the test with PC-3, in the test with CAKI-1, in the test on UACC-62, with SK-MEL-28 and in the test on OVCAR-8 was > 100 µM (inactive) each time. For the same compound, the GI50 in the test with HCT-116, in the test on A549, in the test on NCI-H522, with SNB-75, with HOP-92 and in the test on RPMI-8226 was > 100 µM (inactive) in each case. Besides, in the test with SF-268, the GI50 is > 100 µM (inactive).
`CN(C)C1(C(=O)O)CC1`: the GI50 with HCC 2998, in the test with Malme-3M, in the test with Hs-578T, with MDA-N, with A498 and in the test on TK-10 was > 100 µM (inactive) throughout. Also, the GI50 in the test with SK-MEL-5, in the test on PC-3, in the test with SK-MEL-28, in the test on OVCAR-8, in the test on HCT-116 and with A549 was > 100 µM (inactive) throughout. Further, the GI50 with NCI-H522, with SNB-75, in the test with HOP-92, with RPMI-8226 and in the test on SF-268 was > 100 µM (inactive) each time.
For the compound `Cc1ccc2nc(C(=O)O)c(=O)[nH]c2c1`, the GI50 in the test with HCC 2998, with Malme-3M, in the test on Hs-578T, in the test with MDA-N, with A498 and in the test with TK-10 was > 100 µM (inactive) each time. The GI50 with SK-MEL-5, in the test with PC-3, with CAKI-1, in the test with UACC-62, in the test with SK-MEL-28 and in the test on OVCAR-8 was > 100 µM (inactive) throughout. In addition, the GI50 in the test on HCT-116, in the test with A549, in the test on NCI-H522, with SK-MEL-2, with HOP-92 and in the test on RPMI-8226 was > 100 µM (inactive) throughout. The GI50 in the test with SF-268 was > 100 µM (inactive).
Consider `Nc1ccc(-c2nc3cc(F)ccc3s2)cc1CO`, for which the GI50 was 0.313 µM (active) in the test with HCC 2998; > 72.3 µM (inactive) in the test with Malme-3M; 34.4 µM (inactive) with Hs-578T; > 100 µM (inactive) with MDA-N; 0.0102 µM (active) with A498; > 96.8 µM (inactive) in the test on SK-MEL-5. For the same compound, the GI50 with PC-3 is 29.8 µM (inactive); with CAKI-1, > 56.5 µM (inactive); with UACC-62 it was 19.4 µM (inactive); with SK-MEL-28, > 100 µM (inactive); in the test with OVCAR-8, 28.6 µM (inactive); with HCT-116, 53.6 µM (inactive). Further, the GI50 with A549 is > 69 µM (inactive); in the test with NCI-H522, 41.7 µM (inactive); in the test on SK-MEL-2, 23.9 µM (inactive); in the test on SNB-75 it was 19.2 µM (inactive); in the test on HOP-92, 17.3 µM (inactive); in the test with RPMI-8226 it was > 100 µM (inactive). In addition, the GI50 in the test on SF-268 was 23.8 µM (inactive).
As for `CCCCSC1=N/C(=C\c2ccccc2O)C(Cl)=N1`, the GI50 in the test with HCC 2998, with Malme-3M, with Hs-578T, with MDA-N, in the test on A498 and in the test on TK-10 was > 100 µM (inactive) in each case. In addition, the GI50 with PC-3, in the test on CAKI-1, in the test on UACC-62, in the test on SK-MEL-28, in the test with OVCAR-8 and with HCT-116 was > 100 µM (inactive) in each case. Besides, the GI50 in the test with A549, in the test on NCI-H522, in the test with SK-MEL-2, in the test with SNB-75, with HOP-92 and in the test on RPMI-8226 was > 100 µM (inactive) throughout. Further, the GI50 in the test on SF-268 was > 100 µM (inactive).
